{"source": "patent US11535597B2", "about": "“Photoreactive ligands and uses thereof” (The Scripps Research Institute, priority 2017, dated 2022)", "key": {"PTGR2 [1]": {"target": "T1, PTGR2 (Homo sapiens, UniProt Q8N8N7)", "T1 sequence (Q8N8N7 whole entry, the tested form may be a part)": "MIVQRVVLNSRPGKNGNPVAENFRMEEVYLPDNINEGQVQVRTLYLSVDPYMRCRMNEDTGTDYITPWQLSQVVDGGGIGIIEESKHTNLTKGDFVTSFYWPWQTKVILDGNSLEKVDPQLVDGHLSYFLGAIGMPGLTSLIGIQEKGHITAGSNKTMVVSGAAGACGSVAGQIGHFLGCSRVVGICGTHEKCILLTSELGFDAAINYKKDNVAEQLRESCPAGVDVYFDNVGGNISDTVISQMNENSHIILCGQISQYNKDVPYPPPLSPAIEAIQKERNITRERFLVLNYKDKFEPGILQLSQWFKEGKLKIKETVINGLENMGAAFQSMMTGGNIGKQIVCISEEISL", "assay": "PPARγ luciferase reporter assay in PTGR2-transfected HEK293T cells (15-keto-PGE2-dependent)", "type": "cell-based", "details": "cells recombinantly expressing PTGR2", "experimental": "(§1) HEK293T cells were transiently co-transfected using Polyethylenimine (Sigma) with a UAS-Luciferase reporter and a vector expressing the heterologous GAL4 DNA binding domain (DBD) or a GAL4 DNA binding domain::PPARγ ligand binding domain (LBD) chimeric protein, and full-length PTGR2. 24 hr after transfection, cells were treated either with vehicle (DMSO), 15k-PGE2 (20 μM), or fragment compounds. Rosiglitazone (2 μM), a synthetic PPARγ ligand, was used as control. 16 hr after incubation, cells were lysed in Cell Culture Lysis Reagent (Promega) and luciferase activity measured using the Luciferase Assay System (Promega)."}, "PPARγ": {"target": "T2, PPARγ (Homo sapiens, UniProt P37231)", "T2 construct": "expressed in transfected cells; host or cells: HEK293T", "T2 sequence (P37231 238-503 limits assumed)": "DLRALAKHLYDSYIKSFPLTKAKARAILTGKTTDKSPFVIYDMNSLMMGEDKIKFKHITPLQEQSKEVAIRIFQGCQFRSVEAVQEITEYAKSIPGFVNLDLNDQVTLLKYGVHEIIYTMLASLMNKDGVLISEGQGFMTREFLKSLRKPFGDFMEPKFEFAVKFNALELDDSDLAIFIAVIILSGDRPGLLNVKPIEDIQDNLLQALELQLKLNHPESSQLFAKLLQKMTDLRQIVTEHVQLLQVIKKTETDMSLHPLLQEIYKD", "assay": "GAL4-PPARγ luciferase reporter assay with empty control vector in HEK293T cells", "type": "cell-based", "details": "GAL4-PPARγ luciferase reporter and empty control vector", "experimental": "as §1"}, "PTGR2 [2]": {"target": "T1, PTGR2", "assay": "In vitro LCMS-based activity assay for PTGR2 (15-keto-PGE2 reductase activity)", "type": "biochemical", "experimental": "Aliquots (1 μL) of test compounds dissolved in DMSO were transferred to 1.5 mL eppendorf tubes followed by addition of recombinant human PTGR2 (44 μL, 200 nM final concentration) in freshly prepared reaction buffer (Tris Buffer, 1 mM EDTA, 50 μM TCEP, 300 μM NADPH). The resulting mixture was vortexed and then incubated at 37° C. for 20 min. Next, a 5 μL solution of 15-keto-PGE2 substrate (20 μM final concentration) in reaction buffer was added and the reaction was allowed to proceed for 30 min at 37° C. Reactions were quenched by the addition of 0.5% AcOH in ethyl acetate (800 μL), water (300 μL) and 100 μL of internal standard PGE2-d4 (30 pmol/sample) dissolved in 1:1 methanol/water. Phases were separated by centrifugation and the organic layer was collected and dried under a stream of N2, then stored at −80° C. until analysis. Directly prior to analysis, samples were reconstituted in 100 μL of MeCN:H2O (1:1, v/v) and analyzed by LC/MS/MS. All conditions were performed in triplicate and repeated at least three independent times.\nThe following MS parameters were used to measure the indicated metabolites by MRM (precursor ion, product ion, collision energy, polarity): PGE2-d4 (355, 275, 18), 13,14-dihydro-15-keto-PGE2 (351, 333, 18) and 15-keto-PGE2 (349, 161, 20). 15-keto-PGE2 and 13,14-dihydro-15-keto-PGE2 levels were quantified by determining peak areas in relation to internal standard PGE2-d4. Non-deuterated 15-keto-PGE2 and 13,14-dihydro-15-keto-PGE2 standards were used to confirm retention time and fragmentation.\nAll data fitting and statistical analysis performed using GraphPad Prism version 6.00 for Windows, GraphPad Software, La Jolla Calif. USA, www.graphpad.com. Statistical values including the exact n and statistical significance are also reported. Probe binding blockade and PTGR2 inhibition curves are plotted as mean±SD (n=3 or 4 per group) for a representative biological replicate using a variable slope (four parameter) non-linear fit. Gene expression data are presented as mean±SD (n=3 per group). HSC5 metabolite data are shown as mean±SD (n=3 per group). Statistical significance was defined as P<0.05 and determined by 2-tailed Student t tests, or two-way ANOVA with Bonferroni's post-tests."}, "PTGR2 [3]": {"target": "T1, PTGR2", "assay": "Gel-based competitor blockade of FFF 8 labeling of recombinantly expressed FLAG-tagged PTGR2 in HEK293T cells", "type": "binding", "experimental": "For gel-based experiments, cells were grown in 6-well plates to ˜90% confluence at the time of treatment. Cells were carefully washed with Dulbecco's phosphate buffered saline (DPBS) and replenished with fresh serum-free media containing indicated FFF probe, and, if applicable, competitors or DMSO vehicle (1 mL). Following incubation at 37° C. for 30 min, cells were directly exposed to 365 nm light for 10 min. For no UV experiments, cells were incubated at 4° C. for 10 min under ambient light. For MS-based experiments, cell labeling was performed in a similar manner as described above. Modifications to this protocol included using isotopically ‘light’ and ‘heavy’ SILAC cells that were grown to near complete confluence prior to treatment in 10 cm plates. […]\nCells pellets were lysed in cold DPBS (100-500 µL) using a Branson Sonifier probe sonicator (10 pulses, 30% duty cycle, output setting=4). […] Protein concentration was determined using the DC Protein Assay (Bio-Rad) and absorbance read using a Tecan, Infinite F500 plate reader following manufacturer's instructions. […]\nProteomes from treated cells were diluted to 1 mg/mL. […] Proteins (25 µg total protein loaded per gel lane) were resolved using SDS-PAGE (10% acrylamide) and visualized by in-gel fluorescence on a Hitachi FMBIO-II or a Bio-Rad ChemiDoc™ MP flatbed fluorescence scanner. […]"}}, "data": [{"smiles": "COc1ccccc1C1CCN(S(=O)(=O)Cc2ccccc2)CC1", "note": "[Compound 23, 1-(Benzylsulfonyl)-4-(2-methoxyphenyl)piperidine]", "values": [{"measurement": "15-keto-PGE2-dependent PPARγ transcriptional activity", "setting": "PTGR2 [1]", "result": "no effect"}, {"measurement": "direct modulation of PPARγ transcriptional activity", "setting": "PPARγ", "result": "Neither 22 nor 23 directly modulated"}, {"measurement": "effect on 15-keto-PGE2 reductase (catalytic) activity of recombinant PTGR2", "setting": "PTGR2 [2]", "result": "did not affect"}, {"measurement": "competitor blockade of FFF 8 labeling of recombinant PTGR2 (gel)", "setting": "PTGR2 [3]", "result": "did not affect"}]}]}
